pIC50: −log10 of the molar value.
Experiments:
[1] = system: Escherichia coli expressing NDM-1 (CLB30016); type: cell-based; conditions: with imipenem 1 μg/ml; 95% inhibition of bacterial growth
Experimental: (§1) The bacterial strains tested included the clinical strains Escherichia coil expressing NDM-1 (CLB30005, CLB30016), Serratia marcescens expressing IMP-1 (CL5741), and Klebsiella pneumoniae expressing VIM-1 (H-LMA599644). Inhibitor activity was measured in the presence and absence of imipenem in a 384-well microplate.
(§2) The clinical strains CLB30016, CL5741 and IHMA599644 were grown on trypticase soy agar containing 5% sheep's blood. The bacteria on agar plates were incubated at 35° C. with humidity overnight. The following day, individual colonies from each clinical strain were picked and resuspended in 5 ml saline to attain an OD600 of […], for CLB30016, C15741 and IHMA599644, respectively. These were further diluted 1:100 into 1.1× CAMHB and used to inoculate the test wells as described below.
(§3) Imipenem in 10 mM 3-(N-morpholino)propanesulfonic acid (MOPS, pH 7) was stored in single use aliquots at −80° C. […] On the day of the assay, 4 μl of antibiotic was added to 45 μl of bacteria followed by 1 μl of test compound and mixed by pipetting and with an orbital shaker. The concentration of antibiotic used in the assay was 1 μg/ml. Microplates were covered and incubated at 35° C. for 22 hours to 24 hours. At the end of the incubation, absorbance was determined using a spectrophotometer. The synergistic concentration of MBLI was determined by identifying the lowest concentration of test compound in the presence of a given concentration of antibiotic that was required to inhibit 95% of the growth of the bacteria. The results for Examples 1-209 are reported in Table 1, expressed as the concentration of compound that potentiated the action of antibiotic (imipenem) affecting 95% inhibition of bacterial growth (MITC95).

[2] = system: Serratia marcescens expressing IMP-1 (CL5741); type: cell-based; conditions: with imipenem 1 μg/ml; 95% inhibition of bacterial growth
Experimental: as §1, §2, §3

[3] = system: Klebsiella pneumoniae expressing VIM-1 (IHMA599644); type: cell-based; conditions: with imipenem 1 μg/ml; 95% inhibition of bacterial growth
Experimental: as §1, §2, §3

[4] = system: P. aeruginosa MB9798 (efflux+, IMP-1 plasmid); conditions: for MB9798 MITC95 P. aeruginosa uM Efflux WT: efflux + (MB9798) strain, imipenem at 2 μg/mL, in the presence of a class A, C, D serine β-lactamase inhibitor closely related to relebactam; for Efflux ratio: fold difference between efflux+ (MB9798) and efflux− (MB9799) strains
Excerpt: (§4) The strain background is Pseudomonas aeruginosa PAO1. A wild-type (M135919) and an isogenic strain in which multiple efflux pumps have been disrupted genetically were used. The MBL IMP-1, obtained from a clinical isolate was introduced into the strain pair by the following process:
(§5) The plasmid DNA was transformed into parental MB5919 (oprD+, efflux+, inducible AmpC) and MB5890 (oprD+, efflux−, inducible AmpC) isogenic strains by electroporation.
(§6) The strain set was then used as a pair to determine the effect of metallo-β-lactamase inhibitors of Formula I on the MIC of imipenem and/or ceftazidime. A fixed concentration of antibiotic is included in standard microbroth MIC tests, usually at the CLSI breakpoint concentration, A fixed amount of a class A/C beta-lactamase inhibitor is also included to inhibit the resident Pseudomonas AmpC enzyme. A serial titration of the metallo-β-lactamase inhibitor was included and the concentration of metallo-β-lactamase inhibitor which restores susceptibility of the strain to the included antibiotic was recorded. That concentration of metallo-β-lactamase inhibitor was then compared between the two strains to determine the fold difference between the efflux+(MB9798) and efflux−(MI39799) strains, which indicates the extent to which the MBLi is subject to efflux.

VIM-1 = VIM-1 (Pseudomonas aeruginosa (strain ATCC 15692 / DSM 22644 / CIP 104116 / JCM 14847 / LMG 12228 / 1C / PRS 101 / PAO1), UniProt A0A0F7KYQ8); assay: biochemical; conditions: CCF2-FA fluorescence assay, 2 hours at 25° C.; read-out: VIM1 IC50
Experimental: (§7) The Class B enzyme activities were measured in the presence of the test inhibitor in a fluorescence assay against a commercially available substrate consisting of a cephalosporin core linking 7-hydroxycoumarin to fluorescein (CCF2-FA). The enzyme (NDM-1, IMP-1 or VIM-1) and the substrate were diluted in 100 mM KH2PO4 buffer (pH 7) containing 0.005% Tween-20 and 10 μM ZnSO4. In the assay, the final concentration of enzyme was 1 pM, 2 pM and 30 pM for NDM-1, IMP-1 and VIM-1, respectively, and the final concentration of CCF2-FA was 1.25 μM. The test inhibitor was dissolved in dimethylsulfoxide and diluted 1:50 in the assay, resulting in a final concentration range of 20 μM to 0.00063 μM. In a 384-well microplate, the test inhibitor was incubated with the metallo-β-lactamase enzyme and the substrate for 2 hours at 25° C. Fluorescence at 460 nm following excitation at 405 nm was measured. The IC50 value was determined from semi-logarithmic plots of enzyme inhibition versus inhibitor concentration, with a curve generated using a 4-parameter fit.

IMP-1 = IMP-1 (Serratia marcescens, UniProt P52699); assay: biochemical; conditions: CCF2-FA fluorescence assay, 2 hours at 25° C.; read-out: IMP1 IC50
Experimental: as §7

VIM-2 = VIM-2 (Escherichia coli, UniProt Q5U7L7); assay: biochemical; conditions: CCF2-FA fluorescence assay; read-out: VIM2 IC50
[5] = system: P. aeruginosa MB9799 (efflux-, IMP-1 plasmid); type: cell-based, Pseudomonas aeruginosa; conditions: efflux − (MB9799) strain; imipenem at 2 μg/mL; in the presence of a class A, C, D serine β-lactamase inhibitor closely related to relebactam
Excerpt: as §4, §5, §6

NDM-1 = NDM-1 (Klebsiella pneumoniae, UniProt C7C422); assay: biochemical; type: biochemical; conditions: CCF2-FA fluorescence assay, 2 hours at 25° C.
Experimental: as §7

Chain of NDM-1 (C7C422 whole entry, looked up, species assumed): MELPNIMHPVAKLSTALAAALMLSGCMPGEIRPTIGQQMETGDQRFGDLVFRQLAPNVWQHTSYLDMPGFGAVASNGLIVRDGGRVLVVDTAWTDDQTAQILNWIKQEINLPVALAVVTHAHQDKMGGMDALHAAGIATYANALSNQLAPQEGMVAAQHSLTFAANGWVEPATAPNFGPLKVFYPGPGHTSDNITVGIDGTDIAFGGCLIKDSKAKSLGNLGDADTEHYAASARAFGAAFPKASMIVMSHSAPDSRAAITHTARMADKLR
Chain of IMP-1 (P52699 whole entry, looked up, species assumed): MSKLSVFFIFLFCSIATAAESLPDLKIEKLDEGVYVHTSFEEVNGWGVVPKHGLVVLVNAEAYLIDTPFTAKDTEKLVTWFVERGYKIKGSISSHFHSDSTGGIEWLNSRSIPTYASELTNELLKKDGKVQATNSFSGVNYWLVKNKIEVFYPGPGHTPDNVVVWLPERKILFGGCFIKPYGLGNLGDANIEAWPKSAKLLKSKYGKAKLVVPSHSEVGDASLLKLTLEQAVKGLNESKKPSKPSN

Row | Compound | CLB30016 E. coli MITC95 NDM [1] | CL5741 S. marcescens MITC95 IMP [2] | IHMA599644 K. pneumoniae MITC95 VIM [3] | MB9798 MITC95 P. aeruginosa uM Efflux WT [4] | Efflux ratio [4] | pIC50 (VIM-1) | pIC50 (IMP-1) | pIC50 (VIM-2) | MB9799 MITC95 P. aeruginosa uM Efflux Mutant [5] | pIC50 (NDM-1)
1 | NC[C@@H](O)CNS(=O)(=O)c1ccc(N2CC[C@@H](N)[C@@H](F)C2)c(-c2nn[nH]n2)c1S(N)(=O)=O (single isomer, unassigned) [Example 1] | 0.10 µM | 0.20 µM | 0.39 µM | 0.78 µM | 2.00 | 9.51 | 8.30 | 8.45 | 0.39 µM | 
2 | NCCS(=O)(=O)c1ccc(N2CCCCC2)c(-c2nnn[nH]2)c1S(N)(=O)=O [Example 14] | 0.78 µM | 2.34 µM | 2.34 µM | 12.50 µM | 16.00 | 9.14 | 8.87 |  | 0.78 µM | 8.40
3 | NCCS(=O)(=O)c1ccc(N2CCOCC2)c(-c2nnn[nH]2)c1S(N)(=O)=O [Example 15] | 1.56 µM | 3.13 µM | 3.13 µM | 12.50 µM | 8.00 | 8.60 | 8.19 |  | 1.56 µM | 7.94
4 | NC[C@@H](O)CNS(=O)(=O)c1ccc(N2CCC3(CC2)CNC(=O)OC3)c(-c2nn[nH]n2)c1S(N)(=O)=O [Example 26, (R)-N^1-(3-amino-2-hydroxypropyl)-4-(3-oxo-2-oxa-4,9-diazaspiro[5.5]undecan-9-yl)-3-(2H-tetrazol-5-yl)benzene-1,2-disulfonamide] | 12.50 µM | 6.25 µM | 12.50 µM | 6.25 µM | 2.00 | 9.20 | 8.99 | 8.56 | 3.13 µM | 
5 | N[C@@H]1CCCN(c2ccc(S(=O)(=O)C3CNC3)c(S(N)(=O)=O)c2-c2nnn[nH]2)C1 [Example 28, (R)-3-(3-aminopiperidin-1-yl)-6-(azetidin-3-ylsulfonyl)-2-(1H-tetrazol-5-yl)benzenesulfonamide] | 0.78 µM | 6.25 µM | 1.56 µM | 50.00 µM | 8.00 | 7.43 | 6.33 |  | 6.25 µM | 7.21
6 | N[C@H]1CCCN(c2ccc(S(=O)(=O)C3CNC3)c(S(N)(=O)=O)c2-c2nnn[nH]2)C1 [Example 29, (S)-3-(3-aminopiperidin-1-yl)-6-(azetidin-3-ylsulfonyl)-2-(1H-tetrazol-5-yl)benzenesulfonamide] | 1.56 µM | 6.25 µM | 0.78 µM | 25.00 µM | 8.00 | 8.02 | 6.64 |  | 3.13 µM | 7.07
7 | NS(=O)(=O)c1c(S(=O)(=O)C2CNC2)ccc(N2CCC3(CCNCC3)CC2)c1-c1nnn[nH]1 [Example 30, 6-(azetidin-3-ylsulfonyl)-3-(3,9-diazaspiro[5.5]undecan-3-yl)-2-(1H-tetrazol-5-yl)benzenesulfonamide] | 0.78 µM | 1.56 µM | 1.56 µM | 1.56 µM | 2.00 | 8.70 | 8.28 |  | 0.78 µM | 8.58
8 | NC1CCCN(c2ccc(S(=O)(=O)C3CNC3)c(S(N)(=O)=O)c2-c2nnn[nH]2)CC1 (stereo not drawn) [Example 32, 3-(4-aminoazepan-1-yl)-6-(azetidin-3-ylsulfonyl)-2-(1H-tetrazol-5-yl)benzenesulfonamide] | 6.25 µM | 3.13 µM | 1.56 µM | 12.50 µM | 4.00 | 8.67 | 6.72 |  | 3.13 µM | 6.91
9 | NC1CCCCN(c2ccc(S(=O)(=O)C3CNC3)c(S(N)(=O)=O)c2-c2nnn[nH]2)C1 (stereo not drawn) [Example 33, 3-(3-aminoazepan-1-yl)-6-(azetidin-3-ylsulfonyl)-2-(1H-tetrazol-5-yl)benzenesulfonamide] | 1.56 µM | 3.13 µM | 0.78 µM | 25.00 µM | 8.00 | 8.35 | 6.86 |  | 3.13 µM | 6.96
10 | NC[C@@H](O)CNS(=O)(=O)c1ccc(N2CC[C@H](CN)C2)c(-c2nn[nH]n2)c1S(N)(=O)=O [Example 124, N1-((R)-3-amino-2-hydroxypropyl)-4-((R)-3-(aminomethyl)pyrrolidin-1-yl)-3-(2H-tetrazol-5-yl)benzene-1,2-disulfonamide] | 0.39 µM | 0.78 µM | 0.78 µM | 3.13 µM | 2.00 | 8.50 | 7.64 | 7.43 | 1.56 µM | 
11 | NS(=O)(=O)c1ccc(N2CCC3(CCNCC3)C2=O)c(-c2nn[nH]n2)c1S(N)(=O)=O [Example 134, 4-(1-oxo-2,8-diazaspiro[4.5]decan-2-yl)-3-(2H-tetrazol-5-yl)benzene-1,2-disulfonamide] | 6.25 µM | 12.50 µM | 6.25 µM | 50.00 µM | 8.00 | 7.20 | 6.32 |  | 6.25 µM | 6.74

Reference: US11207312B2, “Metallo-beta-lactamase inhibitors and methods of use thereof” (priority 2017, dated 2021)
